For this test, the target named is T1, hTDO2 (Homo sapiens, UniProt P48775).
T1 construct: endogenous in cells; host or cells: A172 human brain glioblastoma cells (ATCC CRL-1620)
T1 sequence (P48775 whole entry): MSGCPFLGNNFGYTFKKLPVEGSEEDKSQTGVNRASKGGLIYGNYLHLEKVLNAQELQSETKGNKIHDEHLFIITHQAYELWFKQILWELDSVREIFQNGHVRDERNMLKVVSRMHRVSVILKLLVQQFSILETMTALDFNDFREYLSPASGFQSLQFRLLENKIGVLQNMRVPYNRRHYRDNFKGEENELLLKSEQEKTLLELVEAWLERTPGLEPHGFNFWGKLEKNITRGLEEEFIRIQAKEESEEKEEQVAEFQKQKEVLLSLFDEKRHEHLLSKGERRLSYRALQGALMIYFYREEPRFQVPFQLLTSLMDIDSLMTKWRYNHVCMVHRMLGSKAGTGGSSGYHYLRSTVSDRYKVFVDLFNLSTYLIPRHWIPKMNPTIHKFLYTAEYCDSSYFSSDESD
Description: Cellular assay for TDO2 activity determination in A172 cells. It counts as cell-based. The conditions noted are these: human glioblastoma A172 cells naturally expressing hTDO2; overnight incubation; kynurenine by absorbance at 480 nm. The procedure, abridged:
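A172 glioblastoma cells endogenously expressing hTDO2, 1.25×10^4 cells/well, incubated overnight at 37 °C, 5% CO2 in IMDM with 2% FBS and ten compound concentrations. Supernatant kynurenine measured after TCA treatment and Ehrlich's reagent (4-dimethylaminobenzaldehyde) by absorbance at 480 nm against a kynurenine standard curve, then curve-fitted.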
With `NCC1NS(=O)(=O)c2ccc(-c3c[nH]c4cc(F)ccc34)cc21` (single isomer, unassigned; (+)) [Example 19, (+)-3-(aminomethyl)-5-(6-fluoro-1H-indol-3-yl)-2,3-dihydrobenzo[d]isothiazole 1,1-dioxide], the 50% inhibitory concentration (IC50) (commonly the midpoint of a concentration-inhibition curve) was 311 nM.

For `CC1c2cc(-c3c[nH]c4cc(F)ccc34)ccc2S(=O)(=O)N1C1CNC(=O)C1` (single isomer, unassigned; (-)) [Example 125, (−)-4-(5-(6-fluoro-1H-indol-3-yl)-3-methyl-1,1-dioxido-benzo[d]isothiazol-2(3H)-yl)pyrrolidin-2-one], the 50% inhibitory concentration (IC50) stood at 505 nM.

As to `O=S1(=O)c2ccc(-c3c[nH]c4cc(F)ccc34)cc2CN1C[C@@H](O)CO` [Example 35, (R)-2-(2,3-dihydroxypropyl)-5-(6-fluoro-1H-indol-3-yl)-2,3-dihydrobenzo[d]isothiazole 1,1-dioxide], half-maximal inhibition (IC50) was put at 119 nM.

`CC(C)C1NS(=O)(=O)c2ccc(-c3c[nH]c4cc(F)ccc34)cc21` (single isomer, unassigned; (+)) [Example 8, (+)-5-(6-fluoro-1H-indol-3-yl)-3-isopropyl-2,3-dihydrobenzo[d]isothiazole 1,1-dioxide] gave an IC50 of 47 nM.

`O=S1(=O)NC(CO)c2cc(-c3c[nH]c4cc(F)ccc34)ccc21` (single isomer, unassigned; (-)) [Example 12, (−)-5-(6-fluoro-1H-indol-3-yl)-3-(hydroxymethyl)-2,3-dihydrobenzo[d]isothiazole 1,1-dioxide] yielded a concentration for half-maximal inhibition (IC50) of 74 nM.

`CC(=O)N1CCC(N2C(C)c3cc(-c4c[nH]c5cc(F)ccc45)ccc3S2(=O)=O)C1` (single isomer, unassigned; (+)) [Example 74, (+)-1-(3-(5-(6-fluoro-1H-indol-3-yl)-3-methyl-1,1-dioxidobenzo[d]isothiazol-2(3H)-yl)pyrrolidin-1-yl)ethanone]: it took 254 nM to reach half-maximal inhibition (IC50).

`CNC(=O)C(N)CN1C(C)c2cc(-c3c[nH]c4cc(F)ccc34)ccc2S1(=O)=O` (single isomer, unassigned; (-)) [Example 103, (−)-2-amino-3-(5-(6-fluoro-1H-indol-3-yl)-3-methyl-1,1-dioxidobenzo[d]isothiazol-2(3H)-yl)-N-methylpropanamide] registered an IC50 of 413 nM.

Values taken from patent US9873690B2, “3-indol substituted derivatives, pharmaceutical compositions and methods for use” (Pfizer Inc., priority 2015, dated 2018).
